One series has as its system RAW 264.7 macrophages. Description: SAFIRE macrophage assay: host toxicity (adherent macrophage count, morphology). The series is classed as cell-based. Put shortly: (§1)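 RAW 264.7 macrophages infected with S. Typhimurium SL1344 sifB::gfp (MOI ~30), gentamicin 40 µg/mL, then compound from 2 h to 18 h post-infection. Confocal imaging with MitoTracker and DAPI; toxicity as adherent MitoTracker-positive macrophage count, bacterial load as GFP+ macrophage area.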

Series [1] has as its system S. Typhimurium SL1344 (sifB::gfp) in RAW 264.7 macrophages. Briefly: SAFIRE macrophage assay: intracellular bacterial load (GFP signal within macrophages). The series is classed as cell-based, Salmonella enterica serotype Typhimurium. Conditions: 'Toxic' given instead of a score. Put shortly: as §1

As to `OC(COc1cccc(Br)c1)CN1CCC(Nc2nccc(C(F)(F)F)n2)C1` (stereo not drawn) [CU113], in the series with RAW 264.7 macrophages, the “5 uM Avg Cell # Score” value turned out to be 92 and the “25 uM Avg Cell # Score” value was 49. In series [1], the “5 uM Avg Antibacterial Score” value is given as 68 and the “25 uM Avg Antibacterial Score” value is recorded as “Toxic”.

Take `Cc1cccc(OCC(O)CN2CCC(Nc3nccc(C(F)(F)F)n3)C2)c1` (stereo not drawn) [CU114]: in the series with RAW 264.7 macrophages, the “5 uM Avg Cell # Score” value is reported as 99 and the “25 uM Avg Cell # Score” value was found to be 146. Further, in series [1], the “5 uM Avg Antibacterial Score” value is 96 and the “25 uM Avg Antibacterial Score” value is on record as 5.57.

Turning to `OC(COc1c(Cl)cccc1Cl)CN1CCC(Nc2nccc(C(F)(F)F)n2)C1` (stereo not drawn) [CU115], in the series on RAW 264.7 macrophages, the “5 uM Avg Cell # Score” value was 93 and the “25 uM Avg Cell # Score” value is on record as 59. In series [1], the “5 uM Avg Antibacterial Score” value was determined as 99 and the “25 uM Avg Antibacterial Score” value is given as “Toxic”.

`OC(COc1cccc2[nH]ccc12)CN1CCC(Nc2nccc(C(F)(F)F)n2)CC1` (stereo not drawn) [CU116]: in the series on RAW 264.7 macrophages, the “5 uM Avg Cell # Score” value stood at 99 and the “25 uM Avg Cell # Score” value came to 94. In addition, in series [1], the “5 uM Avg Antibacterial Score” value is on record as 90 and the “25 uM Avg Antibacterial Score” value amounted to 6.41.

On to `OC(COc1ccc2cc[nH]c2c1)CN1CCC(Nc2nccc(C(F)(F)F)n2)CC1` (stereo not drawn) [CU117], for which, in the series on RAW 264.7 macrophages, the “5 uM Avg Cell # Score” value amounted to 66 and the “25 uM Avg Cell # Score” value was determined as 74. In series [1], the “5 uM Avg Antibacterial Score” value is reported as 3.65 and the “25 uM Avg Antibacterial Score” value is reported as “Toxic”.

Turning to `OC(COc1cnsn1)CN1CCC(Nc2nccc(C(F)(F)F)n2)CC1` (stereo not drawn) [CU118], in the series on RAW 264.7 macrophages, the “5 uM Avg Cell # Score” value worked out at 89 and the “25 uM Avg Cell # Score” value came out at 124. Also, in series [1], the “5 uM Avg Antibacterial Score” value was 102 and the “25 uM Avg Antibacterial Score” value came to 80.

Take `OC(COc1cc(F)cc(Br)c1)CN1CCC(Nc2nccc(C(F)(F)F)n2)CC1` (stereo not drawn) [CU119]: in the series on RAW 264.7 macrophages, the “5 uM Avg Cell # Score” value is listed as 72 and the “25 uM Avg Cell # Score” value was determined as 50. In addition, in series [1], the “5 uM Avg Antibacterial Score” value was found to be 13 and the “25 uM Avg Antibacterial Score” value is given as “Toxic”.

For the molecule `OC(COc1ccc(Cl)cc1Br)CN1CCC(Nc2nccc(C(F)(F)F)n2)CC1` (stereo not drawn) [CU120], in the series on RAW 264.7 macrophages, the “5 uM Avg Cell # Score” value was 74 and the “25 uM Avg Cell # Score” value is 46. Also, in series [1], the “5 uM Avg Antibacterial Score” value is on record as 13 and the “25 uM Avg Antibacterial Score” value is “Toxic”.

`OC(COc1ccc(Cl)cc1Cl)CN1CCC(NC2CC2)C1` (stereo not drawn) [CU121]: in the series on RAW 264.7 macrophages, the “5 uM Avg Cell # Score” value is on record as 89 and the “25 uM Avg Cell # Score” value was found to be 89. Moreover, in series [1], the “5 uM Avg Antibacterial Score” value came to 73 and the “25 uM Avg Antibacterial Score” value stood at 11.

In the case of `CN(CC(O)COc1ccc(Cl)c(Cl)c1)C1CCOC1` (stereo not drawn) [CU122], in the series with RAW 264.7 macrophages, the “5 uM Avg Cell # Score” value came to 81 and the “25 uM Avg Cell # Score” value is given as 74. Besides, in series [1], the “5 uM Avg Antibacterial Score” value amounted to 102 and the “25 uM Avg Antibacterial Score” value is given as 81.

For the molecule `CCN(CC(O)COc1ccc(Cl)c(Cl)c1)CC1CCOC1` (stereo not drawn) [CU123], in the series on RAW 264.7 macrophages, the “5 uM Avg Cell # Score” value stood at 85 and the “25 uM Avg Cell # Score” value is 84. For the same molecule, in series [1], the “5 uM Avg Antibacterial Score” value is 98 and the “25 uM Avg Antibacterial Score” value was 28.

Consider `OC(COc1ccc(Cl)c(Cl)c1)CN1CCC(F)(F)C1` (stereo not drawn) [CU124], for which, in the series with RAW 264.7 macrophages, the “5 uM Avg Cell # Score” value is recorded as 80 and the “25 uM Avg Cell # Score” value is 71. Further, in series [1], the “5 uM Avg Antibacterial Score” value amounted to 102 and the “25 uM Avg Antibacterial Score” value was determined as 85.

`OC(COc1ccc(Cl)c(Cl)c1)CN1CCC(F)C1` (stereo not drawn) [CU125]: in the series on RAW 264.7 macrophages, the “5 uM Avg Cell # Score” value stood at 81 and the “25 uM Avg Cell # Score” value came out at 86. Besides, in series [1], the “5 uM Avg Antibacterial Score” value is given as 102 and the “25 uM Avg Antibacterial Score” value amounted to 73.

With `CO[C@H]1CCN(CC(O)COc2ccc(Cl)c(Cl)c2)C1` (stereo partly drawn) [CU126], in the series with RAW 264.7 macrophages, the “5 uM Avg Cell # Score” value came out at 81 and the “25 uM Avg Cell # Score” value was determined as 86. Besides, in series [1], the “5 uM Avg Antibacterial Score” value was 99 and the “25 uM Avg Antibacterial Score” value came to 47.

On to `CO[C@@H]1CCN(CC(O)COc2ccc(Cl)c(Cl)c2)C1` (stereo partly drawn) [CU127], for which, in the series on RAW 264.7 macrophages, the “5 uM Avg Cell # Score” value stood at 92 and the “25 uM Avg Cell # Score” value worked out at 85. For the same molecule, in series [1], the “5 uM Avg Antibacterial Score” value stood at 97 and the “25 uM Avg Antibacterial Score” value is on record as 46.

In the case of `COCC1CCCN1CC(O)COc1ccc(Cl)c(Cl)c1` (stereo not drawn) [CU128], in the series on RAW 264.7 macrophages, the “5 uM Avg Cell # Score” value is 85 and the “25 uM Avg Cell # Score” value is reported as 85. In series [1], the “5 uM Avg Antibacterial Score” value is reported as 98 and the “25 uM Avg Antibacterial Score” value turned out to be 32.

With `OC(COc1ccc(Cl)c(Cl)c1)CN1CCC2(CCOCC2)C1` (stereo not drawn) [CU129], in the series with RAW 264.7 macrophages, the “5 uM Avg Cell # Score” value amounted to 100 and the “25 uM Avg Cell # Score” value was 88. For the same molecule, in series [1], the “5 uM Avg Antibacterial Score” value amounted to 95 and the “25 uM Avg Antibacterial Score” value is listed as 39.

With `Cc1nnc(CN(C)CC(O)COc2ccc(Cl)c(Cl)c2)o1` (stereo not drawn) [CU130], in the series on RAW 264.7 macrophages, the “5 uM Avg Cell # Score” value was 100 and the “25 uM Avg Cell # Score” value stood at 73. In addition, in series [1], the “5 uM Avg Antibacterial Score” value is 98 and the “25 uM Avg Antibacterial Score” value worked out at 85.

As for `Cc1noc(CN(C)CC(O)COc2ccc(Cl)c(Cl)c2)n1` (stereo not drawn) [CU131], in the series with RAW 264.7 macrophages, the “5 uM Avg Cell # Score” value is on record as 88 and the “25 uM Avg Cell # Score” value is 80. For the same molecule, in series [1], the “5 uM Avg Antibacterial Score” value turned out to be 101 and the “25 uM Avg Antibacterial Score” value came out at 86.

With `OC(CNC1(c2ccccc2)CC1)COc1ccc(Cl)c(Cl)c1` (stereo not drawn) [CU132], in the series with RAW 264.7 macrophages, the “5 uM Avg Cell # Score” value is recorded as 82 and the “25 uM Avg Cell # Score” value worked out at 39. Besides, in series [1], the “5 uM Avg Antibacterial Score” value turned out to be 102 and the “25 uM Avg Antibacterial Score” value was “Toxic”.

`OC(CNCc1cccc2ccccc12)COc1ccc(Cl)c(Cl)c1` (stereo not drawn) [CU133]: in the series on RAW 264.7 macrophages, the “5 uM Avg Cell # Score” value was determined as 84 and the “25 uM Avg Cell # Score” value is 92. Moreover, in series [1], the “5 uM Avg Antibacterial Score” value is 60 and the “25 uM Avg Antibacterial Score” value is recorded as “Toxic”.

Turning to `OC(CNCc1ccc2c(c1)OC(F)(F)O2)COc1ccc(Cl)c(Cl)c1` (stereo not drawn) [CU134], in the series on RAW 264.7 macrophages, the “5 uM Avg Cell # Score” value was found to be 84 and the “25 uM Avg Cell # Score” value came out at 91. In addition, in series [1], the “5 uM Avg Antibacterial Score” value amounted to 61 and the “25 uM Avg Antibacterial Score” value is recorded as “Toxic”.

With `Cc1cc(CNCC(O)COc2ccc(Cl)c(Cl)c2)sc1C` (stereo not drawn) [CU135], in the series with RAW 264.7 macrophages, the “5 uM Avg Cell # Score” value stood at 75 and the “25 uM Avg Cell # Score” value is given as 103. Further, in series [1], the “5 uM Avg Antibacterial Score” value was determined as 52 and the “25 uM Avg Antibacterial Score” value is “Toxic”.

`OC(COc1ccc(Cl)c(Cl)c1)CN1Cc2ccccc2C1` (stereo not drawn) [CU136]: in the series with RAW 264.7 macrophages, the “5 uM Avg Cell # Score” value amounted to 83 and the “25 uM Avg Cell # Score” value is 63. In addition, in series [1], the “5 uM Avg Antibacterial Score” value was 102 and the “25 uM Avg Antibacterial Score” value is 60.

With `O[C@H](COc1ccc(Cl)c(Cl)c1)CN1CCC(Nc2nccc(C(F)(F)F)n2)CC1` [CU137], in the series on RAW 264.7 macrophages, the “5 uM Avg Cell # Score” value was 91 and the “25 uM Avg Cell # Score” value came out at 67. In series [1], the “5 uM Avg Antibacterial Score” value was found to be 5.37 and the “25 uM Avg Antibacterial Score” value is on record as “Toxic”.

With `O[C@@H](COc1ccc(Cl)c(Cl)c1)CN1CCC(Nc2nccc(C(F)(F)F)n2)CC1` [CU138], in the series with RAW 264.7 macrophages, the “5 uM Avg Cell # Score” value is given as 85 and the “25 uM Avg Cell # Score” value amounted to 75. Further, in series [1], the “5 uM Avg Antibacterial Score” value was 7 and the “25 uM Avg Antibacterial Score” value is recorded as “Toxic”.

With `OC(COc1ccccc1F)CN1CCC(Nc2nccc(C(F)(F)F)n2)C1` (stereo not drawn) [CU139], in the series on RAW 264.7 macrophages, the “5 uM Avg Cell # Score” value is reported as 95 and the “25 uM Avg Cell # Score” value is given as 73. For the same molecule, in series [1], the “5 uM Avg Antibacterial Score” value was 99 and the “25 uM Avg Antibacterial Score” value came out at 28.

These data come from article PMC10746280, “Bacterial efflux pump modulators prevent bacterial growth in macrophages and under broth conditions that mimic the host environment” (mBio, 2023).
